Reference: patent US6509464B1, “FKBP inhibitors” (Pfizer Inc, priority 1999, dated 2003)

What was measured:
Format in all cases: biochemical
[1] = molecular target: T1, human recombinant FKBP-12 (Homo sapiens, UniProt P62942); assay: coupled PPIase (rotamase) assay, Ki,app determination vs. FKBP-12; settings: tested vs. FKBP-12 and/or FKBP-52; FKBP-12 method; succinyl-AFPF-pNA, 10° C., pH 8.0
Text: (§1) The affinity of the compounds of the formula (I) for FKBP-12 can be determined in vitro in a coupled calorimetric PPlase assay using similar procedures to published methods (e.g. see Kofron, J. L., et al., Biochemistry, 1991, 30, 6127-6134, Zarnt, T., et al., Biochem. J. 1995, 305, 159-164, Holt, D. A., et al., J. Am. Chem. Soc., 1993, 115, 9925-9938). In these methods, the cis-trans isomerisation of a hydrophobic amino acid-proline bond in a tetrapeptide substrate (e.g. the phenylalanine-proline bond in N-succinyl-ala-phe-pro-phe-p-nitroanilide [succinyl-AFPF-pNA]) can be determined by monitoring cleavage of pNA from the transPro-containing peptide by an excess of chymotrypsin.
(§2) Assay buffer (2.175 ml) (50 mM HEPES, 100 mM NaCl, 1 mM DTT, pH 8.0) is equilibrated to 10° C. in a cuvette. 12.5 μl of a solution of the present compound in DMSO, 250 μl of a 60 mg/ml solution of α-chymotrypsin in 1 mM aqueous hydrochloric acid and then 50 μL of a solution of human recombinant FKBP-12 (1.5 μM) in assay buffer are added and mixed. The reaction is initiated by adding 12.5 μl of a solution of anhydrous succinyl-AFPF-pNA (100 μM final concentration) in a 400 mM solution of LiCl in trifluoroethanol. The absorbance at 390 nm is monitored for 3 minutes collecting data every 0.5 second. Data are fitted with a first order rate equation with offset and the initial velocity (v) is calculated from the concentration of cis (re leu-pro bond)-succinyl-AFPF-pNA at to and the first order rate constant at different inhibitor concentrations (I). Data in the form vinh/vcontrol v. [I] are fitted with an equation for reversible tight binding inhibition to generate values for Kiapp (see Morrison, J. F., et al, Comments Mol. Cell Biophys., 1985, 2, 347-368). This analysis is used when the Ki,app approaches the concentration of FKBP-12 in the assay (30 nM).

[2] = molecular target: T2, human recombinant FKBP-52 (Homo sapiens, UniProt Q02790); assay: coupled PPIase (rotamase) assay, Ki,app determination vs. FKBP-52; settings: tested vs. FKBP-12 and/or FKBP-52; FKBP-52 method; succinyl-AFPF-pNA, 10° C., pH 8.0
T2 sequence (Q02790 1-459): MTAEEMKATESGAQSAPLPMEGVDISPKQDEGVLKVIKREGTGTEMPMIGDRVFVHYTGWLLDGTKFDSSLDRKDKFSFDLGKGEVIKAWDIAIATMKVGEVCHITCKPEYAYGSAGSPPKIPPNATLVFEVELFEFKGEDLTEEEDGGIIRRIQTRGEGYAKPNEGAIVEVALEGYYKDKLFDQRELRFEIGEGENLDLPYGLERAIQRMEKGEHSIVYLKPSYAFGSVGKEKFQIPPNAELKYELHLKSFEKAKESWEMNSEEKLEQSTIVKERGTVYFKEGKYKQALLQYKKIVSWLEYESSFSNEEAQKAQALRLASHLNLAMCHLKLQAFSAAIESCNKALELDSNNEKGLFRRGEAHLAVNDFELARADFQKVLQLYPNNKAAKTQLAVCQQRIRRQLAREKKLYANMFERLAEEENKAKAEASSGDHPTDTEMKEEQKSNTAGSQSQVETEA
Protocol: as §2
The same methodology is used to measure Ki,app for FKBP-52, with the following modifications: 40 μl human recombinant FKBP-52 (5.2 μM) is substituted for FKBP-12 and 2.185 ml assay buffer are used in the assay.

[3] = molecular target: T1, human recombinant FKBP-12; assay: coupled PPIase (rotamase) assay, IC50 determination vs. FKBP-12; settings: tested vs. FKBP-12 and/or FKBP-52; succinyl-AFPF-pNA substrate, chymotrypsin-coupled, 10° C., pH 8.0
Text: as §1
The IC50 (the concentration of the compound of the formula (I) producing 50% inhibition) values were determined using the following assay methodology. Assay buffer (2.175 ml) (50 mM 4-(2-hydroxyethyl)-1-piperazineethanesulphonic acid (HEPES), 100 mM NaCl, 1 mM dithiothreitol (DTT), pH 8.0) is equilibrated to 10° C. in a cuvette. 12.5 μl of a solution of the present compound in DMSO, 250 μl of a 60 mg/ml solution of α-chymotrypsin in 1 mM aqueous hydrochloric acid and then 50 μl of a solution of human recombinant FKBP-12 (4.5 μM) in assay buffer are added and mixed. The reaction is initiated by addition of 12.5 μl of a solution of 20 mM succinyl-AFPF-pNA in DMSO. The absorbance at 390 nm is monitored for one minute collecting data every 0.25 second. Data are fitted with a first order rate equation with offset and the rate constant obtained corrected for the rate of uncatalysed isomerisation of the substrate. The rate constant determined at different inhibitor concentrations (10 nM to 100 μM) is expressed as % inhibition of the control rate constant. The IC50 is estimated using a nonlinear least squares curve fitting routine of the sigmoidal dose response data.

T1 sequence (P62942 whole entry): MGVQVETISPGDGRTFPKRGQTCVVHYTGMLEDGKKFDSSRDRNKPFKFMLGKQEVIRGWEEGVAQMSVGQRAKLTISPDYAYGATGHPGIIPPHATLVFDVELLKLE

C[C@@H]1CCC[C@H](C)N1CCNC(=O)[C@@H]1CCCCN1c1nc2ccccc2o1 [Example 3, (2S)-1-(1,3-Benzoxazol-2-yl)-N^2-2-[(cis)-2,6-dimethyl-1-piperidinyl]ethyl-2-piperidinecarboxamide]
< 1000 nM: Ki [1] | Ki [2] | IC50 [3]

CC(C)NC(=O)N1C[C@@H](C)N(CCNC(=O)[C@@H]2CCCCN2c2nc3ccccc3o2)[C@@H](C)C1 [Example 11, (cis)-4-[2-([(2S)-1-(1,3-Benzoxazol-2-yl)-2-piperidinyl]carbonylamino)ethyl]-N^1-isopropyl-3,5-dimethyl-1-piperazinecarboxamide]
< 1000 nM: Ki [1] | Ki [2] | IC50 [3]

CC1COCC(C)N1CCNC(=O)[C@@H]1CCCCN1c1nc2ccccc2o1 (stereo partly drawn) [Example 12, (2S)-1-(1,3-Benzoxazol-2-yl)-N^2-[2-(3,5-dimethylmorpholino)ethyl]-2-piperidinecarboxamide]
< 1000 nM: Ki [1] | Ki [2] | IC50 [3]

C[C@@H]1CCC[C@H](C)N1CCNC(=O)[C@@H]1CCCCN1c1nc2ccccc2[nH]1 [Example 17]
< 1000 nM: Ki [1] | Ki [2] | IC50 [3]

COc1ccc2[nH]c(N3CCCC[C@H]3C(=O)NCCN3[C@H](C)CCC[C@@H]3C)nc2c1 [Example 18]
< 1000 nM: Ki [1] | Ki [2] | IC50 [3]

C[C@@H]1CCC[C@H](C)N1CCNC(=O)[C@@H]1CCCCN1c1nc2ccc(F)cc2[nH]1 [Example 19]
< 1000 nM: Ki [1] | Ki [2] | IC50 [3]

Cc1cccc2[nH]c(N3CCCC[C@H]3C(=O)NCCN3[C@H](C)CCC[C@@H]3C)nc12 [Example 27]
< 1000 nM: Ki [1] | Ki [2] | IC50 [3]

Cc1cc2nc(N3CCCC[C@H]3C(=O)NCCN3[C@H](C)CCC[C@@H]3C)oc2cc1C [Example 31, (2S)-N^2-2-[(cis)-2,6-Dimethyl-1-piperidinyl]ethyl-1-[5,6-dimethyl-1,3-benzoxazol-2-yl]-2-piperidinecarboxamide]
< 1000 nM: Ki [1] | Ki [2] | IC50 [3]
